Measured values taken from a melting point compilation (Tetko et al.; mined from patent text by program, amines drawn as free bases though some values may be those of a salt).

Point of comparison: `Cc1c(Cl)ccc2[nH]c(CO)cc12`, melting point 108 °C. Against it:
- COc1ccc(CCOc2cncc(-c3cccc(C(=O)O)c3)c2)cc1OC — higher, 181 to 182 °C
- COc1cc(COc2ccc3nc(NC(=O)OCCN(C)C)cn3n2)cc(OC)c1OC — higher, 185 to 186 °C
- CON1C(=O)CC2(CCN(CNC(=O)c3ccccc3O)CC2)C1=O — lower, 96 to 99 °C
- CC(C)C(C(=O)Nc1n[nH]c(=S)s1)N(C(=O)OCc1ccccc1)c1ccccc1F (configuration not stated) — higher, 148 °C
- CCCNC1CCC(O)CC1 (configuration not stated) — lower, 20 °C
- Cc1[nH]c(C(=O)N2CCC(C(=O)NCC3CCCCC3)CC2)c(C)c1-c1nc2ccc(C(=O)c3ccccc3)cc2[nH]1 — higher, 274 to 276 °C
- CN1CCN(Cn2cncc2-c2cc3c(Nc4ccc5[nH]ccc5c4)c(C#N)cnc3s2)CC1 — higher, > 245 °C
- C=CCn1c(C)c(C)c2cnnc(OCc3ccc(C(F)(F)F)cc3)c21 — lower, 95 to 96 °C
- CCc1nc2c(C)c(C#N)c(C)nc2n1-c1ccc(CCNC(=O)NS(=O)(=O)c2ccc(C)cc2)cc1 — higher, 133 °C
- CC(C)(C)OC(=O)[C@H]1CC[C@@H](c2ccccc2)N1C(=O)CNC(=O)Nc1cccc(CO)c1 (racemic) — higher, 168 °C
- CO[C@@H]1CN(CCC#N)CC[C@@H]1NC(=O)c1cc(Cl)c(N)c2c1OCC2 (relative stereo) — higher, 191 °C
- CNc1nc(Cc2c(Cl)cccc2Cl)nc(Nc2ccc(C#N)cc2)n1 — higher, 229 to 230 °C
- COc1cc(C)nc(N=C=S)n1 — lower, 54 to 55 °C
- CC(C)(CCC#N)c1ccc(C(=O)Nc2cn3c4c(ccc3n2)OCC4)cc1 — higher, 227 to 228 °C
- O=[N+]([O-])C(CN1CCOCC1)=C1NCCCS1 — higher, 131 to 132 °C
- CC(=O)OC(Cn1cncn1)c1ccc(Cl)cc1Cl (configuration not stated) — lower, 92 to 96 °C
- Nc1nc(NCCN2CCN(C(c3ccccc3)c3ccccc3)CC2)nc(-c2cc(Cl)ccc2Cl)n1 — higher, 192 to 193 °C
- Cc1ccccc1-c1c(-c2ccc(S(C)(=O)=O)cc2)oc2ccccc2c1=O — higher, 190 to 191 °C
- Cc1nc(-c2cccc(CN3C(=O)C4(COc5cc6c(cc54)CCO6)c4ccccc43)c2)no1 (configuration not stated) — higher, 209 to 213 °C
- COc1ccc(S(=O)(=O)Nc2onc(C)c2Br)cc1OC — higher, 136 to 138 °C
- Cc1ccc(Oc2ccc(-c3noc(=O)[nH]3)cc2)c(O)c1 — higher, 195 to 198 °C
- COc1ccc2nc(-c3ccc(C=C4C(=O)C5(C)CCC4C5(C)C)cc3)[nH]c2c1 (configuration not stated) — higher, 138 to 142 °C
- CCc1nc2cc(C(N)=O)c(Cl)cc2n1-c1ccc(CCOC(=O)NS(=O)(=O)c2ccc(C)cc2)cc1 — higher, 170 to 175 °C
- CC(=O)Oc1cc([N+](=O)[O-])cc2c1OC(C)(C)C2 — higher, 142 to 143 °C
- Cc1cc(Nc2nc(Cl)nc(Nc3cc(C)c(O)c(C(C)(C)C)c3)n2)cc(C(C)(C)C)c1O — higher, 214 °C
- CC1(C)OC(=O)Nc2ccc(-c3ccccc3F)cc21 — higher, 164 to 165 °C
- Cc1ccccc1N1CCN(Cc2c[nH]c3ncccc23)CC1 — higher, 174 to 176 °C
- N#Cc1ccc(N(Cc2ccc(OS(N)(=O)=O)cc2)n2cnnc2)cc1-c1ccc(F)cc1 — higher, 197 to 199 °C
- Cc1nc(CC(=O)NCc2cccc3c2C(=O)N(C2CCC(=O)NC2=O)C3=O)c(C)s1 (configuration not stated) — higher, 140 to 142 °C
- Brc1ccc(-c2nc3cc(Br)ccc3s2)cc1 — higher, 162 to 163 °C
- Cc1nc(-c2ccc(C(=O)O)cc2)sc1C(=O)O — higher, > 300 °C
- NC(=O)C1CCCC(C(=O)O)C1 (configuration not stated) — not separable, 102 to 128 °C
- O=C(NCCCc1cccc2oc(CCCCc3ccccc3)cc12)C1CC1 — lower, 70 to 71 °C
- CC(C)C[C@H](NC(=O)[C@@H](N)Cc1c[nH]cn1)[C@@H](O)c1nccs1 — higher, 118 to 126 °C
- COc1c(C)c(N2CCN(c3ccc(OC(F)(F)F)cc3)CC2)c(C)c2c1OC(C)(C)C2 — higher, 162 to 164 °C
- CN1c2ccccc2C2CCN(CCC(C(=O)N3CCCCCC3)c3ccccc3)CC21 (configuration not stated) — higher, 150 °C
